Reference: PubChem BioAssay (NCI)
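All cell lines were grown in 96-well plates and treated with compound for 48 hours. Here, GI50 denotes the concentration required for 50% inhibition of growth. The concentration for full growth arrest is given as TGI.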

How the values were obtained:
Test in all cases: inhibition of tumour cell growth, NCI panel, 48 h
CCRF-CEM leukemia = tested on: CCRF-CEM leukemia
NCI-H522 lung = tested on: NCI-H522 lung
COLO 205 colon = tested on: COLO 205 colon
SNB-75 CNS = tested on: SNB-75 CNS
U251 CNS = tested on: U251 CNS
A498 renal = tested on: A498 renal
A549 NSCLC = tested on: A549 NSCLC
OVCAR-8 ovarian = tested on: OVCAR-8 ovarian
MOLT-4 leukemia = tested on: MOLT-4 leukemia
SF-295 CNS = tested on: SF-295 CNS
HCT-116 colon = tested on: HCT-116 colon
KM12 colon = tested on: KM12 colon
TK-10 renal = tested on: TK-10 renal
UACC-62 melanoma = tested on: UACC-62 melanoma
MCF7 breast = tested on: MCF7 breast
MDA-MB-435 = tested on: MDA-MB-435
EKVX NSCLC = tested on: EKVX NSCLC
PC-3 prostate = tested on: PC-3 prostate
UACC-257 melanoma = tested on: UACC-257 melanoma
IGROV1 ovarian = tested on: IGROV1 ovarian
OVCAR-4 ovarian = tested on: OVCAR-4 ovarian
SK-MEL-5 melanoma = tested on: SK-MEL-5 melanoma
SK-MEL-28 melanoma = tested on: SK-MEL-28 melanoma
SK-MEL-2 melanoma = tested on: SK-MEL-2 melanoma
MALME-3M melanoma = tested on: MALME-3M melanoma
SN12C renal = tested on: SN12C renal
SR leukemia = tested on: SR leukemia
NCI/ADR-RES ovarian = tested on: NCI/ADR-RES ovarian
NCI-H226 lung = tested on: NCI-H226 lung
MDA-MB-231 breast = tested on: MDA-MB-231 breast
HT29 colon = tested on: HT29 colon
SW-620 colon = tested on: SW-620 colon
RXF 393 renal = tested on: RXF 393 renal
SK-OV-3 ovarian = tested on: SK-OV-3 ovarian
HCT-15 colon = tested on: HCT-15 colon
K-562 leukemia = tested on: K-562 leukemia
HOP-62 NSCLC = tested on: HOP-62 NSCLC
T-47D breast = tested on: T-47D breast
SNB-19 CNS = tested on: SNB-19 CNS
OVCAR-3 ovarian = tested on: OVCAR-3 ovarian
CAKI-1 renal = tested on: CAKI-1 renal
DU-145 prostate = tested on: DU-145 prostate
NCI-H460 lung = tested on: NCI-H460 lung
LOX IMVI melanoma = tested on: LOX IMVI melanoma
UO-31 renal = tested on: UO-31 renal
OVCAR-5 ovarian = tested on: OVCAR-5 ovarian
BT-549 breast = tested on: BT-549 breast
NCI-H23 lung = tested on: NCI-H23 lung
HCC-2998 colon = tested on: HCC-2998 colon
HOP-92 NSCLC = tested on: HOP-92 NSCLC
HL-60(TB) leukemia = tested on: HL-60(TB) leukemia
ACHN renal = tested on: ACHN renal
SF-539 CNS = tested on: SF-539 CNS
HS 578T breast = tested on: HS 578T breast
SF-268 CNS = tested on: SF-268 CNS
M14 melanoma = tested on: M14 melanoma
786-0 renal = tested on: 786-0 renal
RPMI-8226 leukemia = tested on: RPMI-8226 leukemia

C[C@H]1[C@H](OC(=O)CCC(=O)O)O[C@@H]2O[C@]3(C)CC[C@H]4[C@H](C)CC[C@@H]1[C@@]24OO3 showed a GI50 (CCRF-CEM leukemia) of 0.452 µM, a TGI (CCRF-CEM leukemia) of 19.7 µM and a GI50 (NCI-H522 lung) of 0.365 µM. The TGI (NCI-H522 lung) was 5.43 µM, the GI50 (COLO 205 colon) was 0.341 µM and the TGI (COLO 205 colon) was 1.37 µM. It also gave a GI50 (SNB-75 CNS) of 2.34 µM, a TGI (SNB-75 CNS) of 17.6 µM and a GI50 (U251 CNS) of 0.503 µM. The TGI (U251 CNS) was 18.5 µM, the GI50 (A498 renal) was 5.93 µM and the TGI (A498 renal) was 33.8 µM. For the same compound, the GI50 (A549 NSCLC) was 0.959 µM, the TGI (A549 NSCLC) was 18.3 µM and the GI50 (OVCAR-8 ovarian) was 0.445 µM. It also gave a TGI (OVCAR-8 ovarian) greater than 46.4 µM, a GI50 (MOLT-4 leukemia) of 0.308 µM and a TGI (MOLT-4 leukemia) of 16.5 µM. It also gave a GI50 (SF-295 CNS) of 0.518 µM, a TGI (SF-295 CNS) greater than 67.3 µM and a GI50 (HCT-116 colon) of 0.129 µM. For the same compound, the TGI (HCT-116 colon) was 11.4 µM, the GI50 (KM12 colon) was 0.168 µM and the TGI (KM12 colon) was 12 µM. For the same compound, the TGI (TK-10 renal) was 11.6 µM, the GI50 (UACC-62 melanoma) was 0.474 µM and the TGI (UACC-62 melanoma) was 27.4 µM. For the same compound, the GI50 (MCF7 breast) was 0.698 µM, the TGI (MCF7 breast) was 20.8 µM and the GI50 (MDA-MB-435) was 0.335 µM. For the same compound, the TGI (MDA-MB-435) was 13.5 µM, the GI50 (EKVX NSCLC) was 0.443 µM and the TGI (EKVX NSCLC) was 18.3 µM. For the same compound, the GI50 (PC-3 prostate) was 0.0886 µM, the TGI (PC-3 prostate) was greater than 100 µM and the GI50 (UACC-257 melanoma) was 3.36 µM. For the same compound, the TGI (UACC-257 melanoma) was greater than 100 µM, the GI50 (IGROV1 ovarian) was 1.17 µM and the TGI (IGROV1 ovarian) was 5.91 µM. The GI50 (OVCAR-4 ovarian) was 1.28 µM, the TGI (OVCAR-4 ovarian) was 28.1 µM and the GI50 (SK-MEL-5 melanoma) was 0.315 µM. For the same compound, the TGI (SK-MEL-5 melanoma) was 11.3 µM, the GI50 (SK-MEL-28 melanoma) was 4.27 µM and the TGI (SK-MEL-28 melanoma) was greater than 100 µM. The GI50 (SK-MEL-2 melanoma) was 2.86 µM, the TGI (SK-MEL-2 melanoma) was 59.8 µM and the GI50 (MALME-3M melanoma) was 0.878 µM. The TGI (MALME-3M melanoma) was 31.6 µM, the GI50 (SN12C renal) was 0.777 µM and the TGI (SN12C renal) was greater than 48.9 µM. For the same compound, the GI50 (SR leukemia) was 0.238 µM, the TGI (SR leukemia) was 4.27 µM and the GI50 (NCI/ADR-RES ovarian) was 0.482 µM. It also gave a TGI (NCI/ADR-RES ovarian) of 6.15 µM, a GI50 (NCI-H226 lung) of 0.956 µM and a TGI (NCI-H226 lung) of 34.6 µM. It also gave a GI50 (MDA-MB-231 breast) of 2.34 µM, a TGI (MDA-MB-231 breast) of 35.4 µM and a GI50 (HT29 colon) of 0.627 µM. It also gave a TGI (HT29 colon) of 16.8 µM, a GI50 (SW-620 colon) of 0.282 µM and a TGI (SW-620 colon) of 17.8 µM. It also gave a GI50 (RXF 393 renal) of 0.953 µM, a TGI (RXF 393 renal) of 33 µM and a GI50 (SK-OV-3 ovarian) of 16.7 µM. It also gave a TGI (SK-OV-3 ovarian) greater than 89 µM, a GI50 (HCT-15 colon) of 0.107 µM and a TGI (HCT-15 colon) of 16.1 µM. For the same compound, the GI50 (K-562 leukemia) was 0.443 µM, the TGI (K-562 leukemia) was 10 µM and the GI50 (HOP-62 NSCLC) was 3.68 µM. It also gave a TGI (HOP-62 NSCLC) of 27.3 µM, a GI50 (T-47D breast) of 0.4 µM and a TGI (T-47D breast) of 22.7 µM. The GI50 (SNB-19 CNS) was 1.62 µM, the TGI (SNB-19 CNS) was greater than 100 µM and the GI50 (OVCAR-3 ovarian) was 0.415 µM. For the same compound, the TGI (OVCAR-3 ovarian) was 15.2 µM, the GI50 (CAKI-1 renal) was 0.532 µM and the TGI (CAKI-1 renal) was 36 µM. The GI50 (DU-145 prostate) was 6.48 µM, the TGI (DU-145 prostate) was 20.1 µM and the GI50 (NCI-H460 lung) was 1.24 µM. For the same compound, the TGI (NCI-H460 lung) was 41.6 µM, the GI50 (LOX IMVI melanoma) was 0.421 µM and the TGI (LOX IMVI melanoma) was 4.79 µM. For the same compound, the GI50 (UO-31 renal) was 0.398 µM, the TGI (UO-31 renal) was 7.38 µM and the GI50 (OVCAR-5 ovarian) was 0.669 µM. The TGI (OVCAR-5 ovarian) was 20.5 µM, the GI50 (BT-549 breast) was 0.292 µM and the TGI (BT-549 breast) was 4.55 µM. The GI50 (NCI-H23 lung) was 0.383 µM, the TGI (NCI-H23 lung) was 10.7 µM and the GI50 (HCC-2998 colon) was 1.48 µM. It also gave a TGI (HCC-2998 colon) of 24 µM, a GI50 (HOP-92 NSCLC) of 0.214 µM and a TGI (HOP-92 NSCLC) of 2.38 µM. The GI50 (HL-60(TB) leukemia) was 0.167 µM, the TGI (HL-60(TB) leukemia) was 0.566 µM and the GI50 (ACHN renal) was 0.921 µM. For the same compound, the TGI (ACHN renal) was 14.4 µM, the GI50 (SF-539 CNS) was 0.667 µM and the TGI (SF-539 CNS) was 14.5 µM. The GI50 (HS 578T breast) was 0.986 µM, the TGI (HS 578T breast) was 36.9 µM and the GI50 (SF-268 CNS) was 1.04 µM. For the same compound, the TGI (SF-268 CNS) was 43.2 µM, the GI50 (M14 melanoma) was 0.777 µM and the TGI (M14 melanoma) was 14.8 µM. It also gave a GI50 (786-0 renal) of 1.12 µM, a TGI (786-0 renal) of 25.8 µM and a GI50 (RPMI-8226 leukemia) of 0.0948 µM. For the same compound, the TGI (RPMI-8226 leukemia) was 13 µM.
